Measured values published in paper PMC9666501, “Screening for effective cell-penetrating peptides with minimal impact on epithelial cells and gut commensals in vitro” (Frontiers in Pharmacology, 2022).
“Also recorded” adds a separate entry of the source. No end group written: not given here.

Columns and labels:
Caco-2 cells [1] = format: cell-based; conditions: CPP 1, 5, 10, 50, 100 µM in DMEM, 1 h treatment (legend; method says 2 h), 37°C, Incucyte imaging, n = 2
Procedure: Caco-2 cells were seeded (6 × 10^3 cells/well) in Corning™ Costar™ 96-Well, Cell Culture-Treated, Flat-Bottom Microplate and grown at 37°C with 5% CO2 until reaching confluence. […] Fluorescence was measured with microplate reader Synergy™ H1 BioTek; (excitation wavelength: 560 nm, emission wavelength: 590 nm) and a curve of Relative Fluorescence Units (RFU) against different concentrations of CPPs was plotted.
[…] The cells were then imaged using the Incucyte® Live-Cell analysis instrument. Cytotox Red dye dilution: The dye was diluted to a stock concentration of 100 µM in PBS. This was further diluted in full media to yield a final concentration of 250 nM before adding to the cells.

Caco-2 cells [2] = experiment: AlamarBlue cell viability assay; format: cell-based, human; conditions: for Cell viability (AlamarBlue, % live cells vs control): CPP 5 µM, 1 h treatment (legend; method says 2 h), 37°C, fluorescence 560/590 nm, n = 3; for Cell toxicity and viability: CPP 50 µM, Cytotox Red and AlamarBlue assays
Procedure: Caco-2 cells were seeded (6 × 10^3 cells/well) in Corning™ Costar™ 96-Well, Cell Culture-Treated, Flat-Bottom Microplate and grown at 37°C with 5% CO2 until reaching confluence. For alamarBlue cell viability staining, cells were exposed to treatments (DMEM + AlamarBlue (10 µL) + CPPs) at different concentrations and incubated for 2 h at 37°C with 5% CO2. Fluorescence was measured with microplate reader Synergy™ H1 BioTek; (excitation wavelength: 560 nm, emission wavelength: 590 nm) and a curve of Relative Fluorescence Units (RFU) against different concentrations of CPPs was plotted.

Caco-2 monolayers [3] = experiment: FITC-dextran translocation assay; format: cell-based, human; conditions: for Paracellular permeability of FITC-dextran (Papp A-B): Caco-2 monolayers 21 days, each CPP at a concentration without cytotoxicity, apical, 1 h, 37 °C, pH 7.4, then 1 mg/ml FITC-dextran 4 for 30 min, fluorescence, n = 3; for Paracellular permeability (TEER and FITC-dextran assays collectively) / FITC-dextran translocation: Caco-2 monolayers; for Paracellular permeability (TEER and FITC-dextran assays collectively): in the concentrations tested; for FITC-dextran translocation: CPP 100 µM
Procedure: (§1) For Fluorescein Isothiocyanate (FITC)-Dextran permeability experiments, Caco-2 monolayers differentiated for 21 days were transferred to 12-well plates containing 1.5 ml phenol red free DMEM media (pH 7.4) in the basal compartments. For the treatment, medium in the apical compartment was replaced by 0.5 ml phenol red free DMEM medium containing different concentrations of CPPs, and the plates were incubated at 37 °C for 1 h. Post treatment, inserts were transferred to a new 12-well plate containing 1.5 ml fresh phenol red free DMEM and the apical medium was replaced by medium containing 1 mg/ml FITC-dextran 4 (Sigma-Aldrich). The incubation with the permeability marker lasted for 30 min. Samples were collected from the basolateral compartments post incubation and fluorescence was measured using multi-well fluorescent plate reader (Synergy; excitation wavelength: 490 nm, emission wavelength: 520 nm). The concentration of FITC-dextran in the samples was calculated by comparing the relative fluorescence values to the FITC-dextran standard curve. The apparent permeability coefficient (Papp, cm/s) was calculated according to Eq. 1. Papp=dQ/dt×1/(A×C0), (1) Where dQ/dt is the drug permeation rate (μg/s); a is the surface area of the inserts (cell monolayer) (cm^2); and C0 is the initial concentration at the apical side (μg/ml).

[4] = test system: Bacteroides thetaiotaomicron DSM 2079; experiment: Broth microdilution antimicrobial assay; format: cell-based; conditions: B. thetaiotaomicron; microbroth dilution in mGAM, anaerobic, 37 °C, 24 h, OD600; CPP 0.01-100 µM
Procedure: (§2) Gut commensal microbial strains used in this study (Table 2) were purchased from […] (ATCC) and DSMZ, Germany. The growth and screening experiments were performed in modified Gifu Anaerobic Medium (mGAM) (HyServe GmbH and Co.) as all the strains could grow well in this media. mGAM was pre-reduced for a minimum of 1 day in the anaerobic chamber (Coy laboratory products Inc.) before use.
(§3) The antimicrobial effects of CPPs were determined by performing microbroth dilution method. The overnight cultures of the strains were diluted 100-fold in mGAM broth and 100 µL of the diluted cultured were distributed in the 96-well microplate. Next, 100 µL of CPPs in their respective concentrations were added to respective wells. Plates were incubated aerobically (Escherichia coli Nissle, Escherichia coli K12, and Saccharomyces boulardii) or anaerobically (rest of the strains) at 37 °C for 24 h with or without shaking, respectively. Reading of each plate was performed by measuring the optical density (OD) at 600 nm in a microplate reader (Synergy™ H1 BioTek). The final absorbance values were normalized and represented as values between 0 and 1 as a heat map, where 0 being full inhibition and 1 being no inhibition. The MIC was determined as the minimum concentration of the CPPs at which no significant growth of the strain was observed as compared to medium only (blank).

[5] = test system: Bacteroides vulgatus ATCC 8482; experiment: Broth microdilution antimicrobial assay; format: cell-based; conditions: B. vulgatus; microbroth dilution in mGAM, anaerobic, 37 °C, 24 h, OD600; CPP 0.01-100 µM
Procedure: as §2, §3

[6] = test system: Bifidobacterium adolescentis DSM 20083; experiment: Broth microdilution antimicrobial assay; format: cell-based; conditions: microbroth dilution in mGAM, anaerobic, 37 °C, 24 h, OD600, CPP 0.01-100 µM
Procedure: as §2, §3

[7] = test system: Bifidobacterium longum ATCC 15697; experiment: Broth microdilution antimicrobial assay; format: cell-based; conditions: microbroth dilution in mGAM, anaerobic, 37 °C, 24 h, OD600, CPP 0.01-100 µM
Procedure: as §2, §3

[8] = test system: Clostridium bolteae DSM 29485; experiment: Broth microdilution antimicrobial assay; format: cell-based; conditions: microbroth dilution in mGAM, anaerobic, 37 °C, 24 h, OD600, CPP 0.01-100 µM
Procedure: as §2, §3

[9] = test system: Escherichia coli K12 MG 1655; experiment: Broth microdilution antimicrobial assay; format: cell-based; conditions: microbroth dilution in mGAM, aerobic with shaking, 37 °C, 24 h, OD600, CPP 0.01-100 µM
Procedure: as §2, §3

[10] = test system: Escherichia coli Nissle 1917 (Mutaflor); experiment: Broth microdilution antimicrobial assay; format: cell-based; conditions: microbroth dilution in mGAM, aerobic with shaking, 37 °C, 24 h, OD600, CPP 0.01-100 µM
Procedure: as §2, §3

[11] = test system: Lactobacillus gasseri DSM 20077; experiment: Broth microdilution antimicrobial assay; format: cell-based; conditions: microbroth dilution in mGAM, anaerobic, 37 °C, 24 h, OD600, CPP 0.01-100 µM
Procedure: as §2, §3

[12] = test system: Latilactobacillus sakei ATCC 15521; experiment: Broth microdilution antimicrobial assay; format: cell-based; conditions: microbroth dilution in mGAM, anaerobic, 37 °C, 24 h, OD600, CPP 0.01-100 µM
Procedure: as §2, §3

[13] = test system: 10 commensal gut microbial strains; experiment: Broth microdilution antimicrobial assay, panel summary; format: cell-based; conditions: range over the strains that were totally inhibited; mGAM, 37 °C, 24 h
Procedure: as §2, §3

Caco-2 monolayers [14] = conditions: cited from earlier work
Procedure: (§4) In the present work we systematically screened for effective CPPs that promote intestinal permeation through paracellular route and have negligible or no harmful effects against human epithelial cells and gut microbial strains. […] The results from the cytotoxicity and cell viability assays were in concordance except for RRL helix and PN159 at 5 µM. This minor difference most likely has to do with the sensitivity of the assay. The reducing capacity of the cells (as measured by AlamarBlue) is not the same as membrane integrity (as measured by Cytotoxic Red).

Caco-2 monolayers [15] = experiment: Transepithelial electrical resistance (TEER) of Caco-2 monolayers; format: cell-based, human; conditions: for Change in TEER values after 1 h treatment with CPPs: Caco-2 monolayers differentiated 21 days, each CPP at a concentration without cytotoxicity, 37 °C, n = 3, p < 0.01 vs no treatment; for Reduction in TEER: Caco-2 monolayers, CPP 100 µM
Procedure: Transepithelial electrical resistance (TEER) represents the barrier integrity and permeability of the Caco-2 monolayers. To measure TEER, cells were seeded and grown on 12-well cell culture inserts ([…], 1.1 cm, polyethylene terephthalate membrane, cellQART) for a period of 21 days. TEER was measured using Millicell® ERS-2 Voltohmeter (MERS00002), combined with a STX-04 electrode. Final TEER values were expressed relative to the surface area of the inserts (ΩTotal - ΩInsert X cm^2). TEER values were monitored every day from day 14 until day 21, before, and after permeability experiments. On day 21 of differentiation, TEER values of the monolayers were 600 ± 50 Ω X cm^2 (mean ± SD; n = 48).
as §1

Saccharomyces cerevisiae = test system: Saccharomyces cerevisiae; set-up: method as in Palm et al in 2006; conditions: ref Palm et al in 2006; cited from earlier work
[16] = rats, without damaging the epithelial barrier integrity, ref Kamei et al., 2008, Morishita et al., Bocsik et al., 2019; cited from earlier work
Procedure: as §4

CC(C)C[C@H](NC(=O)[C@H](C)NC(=O)[C@H](CCCCN)NC(=O)[C@H](CC(C)C)NC(=O)[C@H](C)NC(=O)[C@H](CC(C)C)NC(=O)[C@H](CCCCN)NC(=O)[C@H](CC(C)C)NC(=O)[C@H](C)NC(=O)[C@H](CC(C)C)NC(=O)[C@@H](N)CCCCN)C(=O)N[C@@H](CCCCN)C(=O)N[C@@H](C)C(=O)N[C@@H](C)C(=O)N[C@@H](CC(C)C)C(=O)N[C@@H](CCCCN)C(=O)N[C@@H](CC(C)C)C(=O)N[C@@H](C)C(N)=O [PN159]
Cytotoxicity (Cytotox Red dye staining, dead cells) (Caco-2 cells [1]): toxic at 5 µM; also recorded: Toxicity from 5 μM | Cell viability (AlamarBlue, % live cells vs control) (Caco-2 cells [2]): no significant toxic effect; also recorded: no significant effect on cell viability | Paracellular permeability of FITC-dextran (Papp A-B) (Caco-2 monolayers [3]): highest paracellular permeability | Minimum inhibitory concentration (MIC) [4]: 10 µM | Minimum inhibitory concentration (MIC) [5]: 10 µM | Minimum inhibitory concentration (MIC) [6]: 10 µM | Minimum inhibitory concentration (MIC) [7]: 1 µM | Minimum inhibitory concentration (MIC) [8]: 1 µM | Minimum inhibitory concentration (MIC) [9]: 5 µM | Minimum inhibitory concentration (MIC) [10]: 50 µM | Minimum inhibitory concentration (MIC) [11]: 5 µM | Minimum inhibitory concentration (MIC) [12]: 1 µM | MICs over the totally inhibited strains of the panel [13]: 1 to 50 µM | Paracellular permeability of Caco-2 monolayers via tight junction modulation (Caco-2 monolayers [14]; CPP 3 µM, ref Bocsik et al in 2019): significantly improve paracellular permeability of Caco-2 monolayers

KWFKIQMQIRRWKNKR [Penetramax]
Cytotoxicity (Cytotox Red dye staining, dead cells) (Caco-2 cells [1]): significant toxicity only at the highest concentration tested (100 µM) | Cell toxicity and viability (Caco-2 cells [2]): without having significant effects on cell toxicity and viability | Paracellular permeability of FITC-dextran (Papp A-B) (Caco-2 monolayers [3]): highest paracellular permeability | Minimum inhibitory concentration (MIC) [7]: 10 µM | Minimum inhibitory concentration (MIC) [8]: 100 µM | Minimum inhibitory concentration (MIC) [12]: 100 µM

LLIILRRRIRKQAHAHSK [pVEC, Protein derived cell-penetrating peptide]
Change in TEER values after 1 h treatment with CPPs (Caco-2 monolayers [15]): significant reduction in TEER values | Paracellular permeability (TEER and FITC-dextran assays collectively) (Caco-2 monolayers [3]): did not exhibit paracellular permeability | Concentration without inhibition of growth (Saccharomyces cerevisiae): > 25 µM

RQIKIWFQNRRMKWKK [Penetratin, Protein derived cell-penetrating peptide]
Change in TEER values after 1 h treatment with CPPs (Caco-2 monolayers [15]): significant reduction in TEER values | Permeabilizing effect in the Caco-2 monolayer setup (Caco-2 monolayers [3]): no permeabilizing effect | Paracellular permeability (TEER and FITC-dextran assays collectively) (Caco-2 monolayers [3]): did not exhibit paracellular permeability | Concentration without inhibition of growth (Saccharomyces cerevisiae): > 25 µM | Paracellular permeability of Caco-2 monolayers (Caco-2 monolayers [14]): did not improve paracellular permeability

RRLRRLLRRLRRLLRRLR [RRL helix]
Cytotoxicity (Cytotox Red dye staining, dead cells) (Caco-2 cells [1]): toxic at 5 µM; also recorded: Toxicity from 5 μM | Cell viability (AlamarBlue, % live cells vs control) (Caco-2 cells [2]): no significant toxic effect | Paracellular permeability of FITC-dextran (Papp A-B) (Caco-2 monolayers [3]): highest paracellular permeability | Minimum inhibitory concentration (MIC) [6]: 100 µM | Minimum inhibitory concentration (MIC) [7]: 5 µM | Minimum inhibitory concentration (MIC) [8]: 10 µM | Minimum inhibitory concentration (MIC) [10]: 50 µM | Minimum inhibitory concentration (MIC) [12]: 50 µM | MICs over the totally inhibited strains of the panel [13]: 5 to 100 µM

RRRRRRRR [R8, Synthetic oligoarginine cell-penetrating peptide]
Reduction in TEER (Caco-2 monolayers [15]): did not observe reduction in TEER | FITC-dextran translocation (Caco-2 monolayers [3]): did not observe reduction in TEER or elevated FITC-dextran translocation | Paracellular permeability (TEER and FITC-dextran assays collectively) (Caco-2 monolayers [3]): did not exhibit paracellular permeability | Intestinal absorption of therapeutic peptides [16]: effective tools at improving intestinal absorption of therapeutic peptides

RRRRRRRRR [R9, Synthetic oligoarginine cell-penetrating peptide]
Reduction in TEER (Caco-2 monolayers [15]): did not observe reduction in TEER | FITC-dextran translocation (Caco-2 monolayers [3]): did not observe reduction in TEER or elevated FITC-dextran translocation | Paracellular permeability (TEER and FITC-dextran assays collectively) (Caco-2 monolayers [3]): did not exhibit paracellular permeability | Intestinal absorption of therapeutic peptides [16]: effective tools at improving intestinal absorption of therapeutic peptides

RWFKIQMQIRRWKNKK [Shuffle]
Cytotoxicity (Cytotox Red dye staining, dead cells) (Caco-2 cells [1]): significant toxicity only at the highest concentration tested (100 µM) | Cell toxicity and viability (Caco-2 cells [2]): without having significant effects on cell toxicity and viability | Paracellular permeability of FITC-dextran (Papp A-B) (Caco-2 monolayers [3]): highest paracellular permeability | Minimum inhibitory concentration (MIC) [7]: 10 µM | Minimum inhibitory concentration (MIC) [8]: 50 µM | Minimum inhibitory concentration (MIC) [12]: 100 µM

YGRKKRRQRRR [Tat]
Permeabilizing effect in the Caco-2 monolayer setup (Caco-2 monolayers [3]): no permeabilizing effect | Paracellular permeability (TEER and FITC-dextran assays collectively) (Caco-2 monolayers [3]): did not exhibit paracellular permeability
